Data reported in paper PMC4441267.

What was measured:
[1] = CuAAC macrocyclisation of azide/terminal alkyne linear peptidomimetics to 1,4-triazole (CuI 2 eq, DIPEA 3 eq, Ar-degassed), then Boc removal (TMSCl/MeOH GP4; HCl/dioxane GP5 for A13w, J13w); settings: THF (reflux), 1.2 mM, 66.0 °C, 18.0 h, 2 steps
[2] = RuAAC macrocyclisation of azide/terminal alkyne linear peptidomimetics to 1,5-triazole ([Cp*RuCl]4 0.1 eq, Ar-degassed), then Boc removal (TMSCl/MeOH GP4 or HCl/dioxane GP5); settings: toluene (reflux), 1.25 mM, 111.0 °C, 18.0 h, 2 steps

**Q.** Which ring closure, yield over several steps ([1]; from C#CCCC(=O)NCC[C@H](NC(=O)OC(C)(C)C)C(=O)N[C@@H](CNC(=O)[C@H](Cc1ccccc1)N=[N+]=[N-])C(=O)OC, 17-membered ring) does the source give for `COC(=O)[C@@H]1CNC(=O)[C@H](Cc2ccccc2)n2cc(nn2)CCC(=O)NCC[C@H](NC(=O)OC(C)(C)C)C(=O)N1` [Boc-Dab(4-pentynoyl)-Dap(N3-Phe)-OMe] here?
**A.** The ring closure, yield over several steps was 81%.

**Q.** For `COC(=O)[C@@H]1CCCCn2cc(nn2)CCC(=O)NCC[C@H](NC(=O)OC(C)(C)C)C(=O)N1` [Boc-Dab(4-pentynoyl)-Lys(N3)-OMe], which ring closure, yield over several steps ([1]; from C#CCCC(=O)NCC[C@H](NC(=O)OC(C)(C)C)C(=O)N[C@@H](CCCCN=[N+]=[N-])C(=O)OC, 17-membered ring) is on record?
**A.** The ring closure, yield over several steps was 62%.

**Q.** Which ring closure, yield over several steps ([1]; from C#CCCC(=O)NCC[C@H](NC(=O)OC(C)(C)C)C(=O)N[C@@H](CCCCNC(=O)[C@H](Cc1ccccc1)N=[N+]=[N-])C(=O)OC, 20-membered ring) does the source give for `COC(=O)[C@@H]1CCCCNC(=O)[C@H](Cc2ccccc2)n2cc(nn2)CCC(=O)NCC[C@H](NC(=O)OC(C)(C)C)C(=O)N1` [Boc-Dab(4-pentynoyl)-Lys(N3-Phe)-OMe] here?
**A.** Its ring closure, yield over several steps is 91%.

**Q.** Which ring closure, yield over several steps ([1]; from C#CCCC(=O)NCC[C@H](NC(=O)OC(C)(C)C)C(=O)N[C@@H](CCCN=[N+]=[N-])C(=O)OC, 16-membered ring) does the source give for `COC(=O)[C@@H]1CCCn2cc(nn2)CCC(=O)NCC[C@H](NC(=O)OC(C)(C)C)C(=O)N1` [Boc-Dab(4-pentynoyl)-Orn(N3)-OMe] here?
**A.** The ring closure, yield over several steps was 99%.

**Q.** With `COC(=O)[C@@H]1CNC(=O)[C@H](Cc2ccccc2)n2cc(nn2)CCCC(=O)NCC[C@H](NC(=O)OC(C)(C)C)C(=O)N1` [Boc-Dab(5-hexynoyl)-Dap(N3-Phe)-OMe] as the compound, how does the ring closure, yield over several steps ([1]; from C#CCCCC(=O)NCC[C@H](NC(=O)OC(C)(C)C)C(=O)N[C@@H](CNC(=O)[C@H](Cc1ccccc1)N=[N+]=[N-])C(=O)OC, 18-membered ring) read?
**A.** Its ring closure, yield over several steps is 70%.

**Q.** For `COC(=O)[C@@H]1CCCCn2cc(nn2)CCCC(=O)NCC[C@H](NC(=O)OC(C)(C)C)C(=O)N1` [Boc-Dab(5-hexynoyl)-Lys(N3)-OMe], which ring closure, yield over several steps ([1]; from C#CCCCC(=O)NCC[C@H](NC(=O)OC(C)(C)C)C(=O)N[C@@H](CCCCN=[N+]=[N-])C(=O)OC, 18-membered ring) is on record?
**A.** The ring closure, yield over several steps was 99%.

**Q.** For `COC(=O)[C@@H]1CCCCNC(=O)[C@H](Cc2ccccc2)n2cc(nn2)CCCC(=O)NCC[C@H](NC(=O)OC(C)(C)C)C(=O)N1` [Boc-Dab(5-hexynoyl)-Lys(N3-Phe)-OMe], which ring closure, yield over several steps ([1]; from C#CCCCC(=O)NCC[C@H](NC(=O)OC(C)(C)C)C(=O)N[C@@H](CCCCNC(=O)[C@H](Cc1ccccc1)N=[N+]=[N-])C(=O)OC, 21-membered ring) is on record?
**A.** The ring closure, yield over several steps was 88%.

**Q.** For `COC(=O)[C@@H]1CCCn2cc(nn2)CCCC(=O)NCC[C@H](NC(=O)OC(C)(C)C)C(=O)N1` [Boc-Dab(5-hexynoyl)-Orn(N3)-OMe], which ring closure, yield over several steps ([1]; from C#CCCCC(=O)NCC[C@H](NC(=O)OC(C)(C)C)C(=O)N[C@@H](CCCN=[N+]=[N-])C(=O)OC, 17-membered ring) is on record?
**A.** The ring closure, yield over several steps was 60%.

**Q.** Which ring closure, yield over several steps ([1]; from C#CCNC(=O)NCC[C@H](NC(=O)OC(C)(C)C)C(=O)N[C@@H](CNC(=O)[C@H](Cc1ccccc1)N=[N+]=[N-])C(=O)OC, 17-membered ring) does the source give for `COC(=O)[C@@H]1CNC(=O)[C@H](Cc2ccccc2)n2cc(nn2)CNC(=O)NCC[C@H](NC(=O)OC(C)(C)C)C(=O)N1` [Boc-Dab(CONH-propargyl)-Dap(N3-Phe)-OMe] here?
**A.** The ring closure, yield over several steps was 64%.

**Q.** Which ring closure, yield over several steps ([1]; from C#CCNC(=O)NCC[C@H](NC(=O)OC(C)(C)C)C(=O)N[C@@H](CCCCN=[N+]=[N-])C(=O)OC, 17-membered ring) does the source give for `COC(=O)[C@@H]1CCCCn2cc(nn2)CNC(=O)NCC[C@H](NC(=O)OC(C)(C)C)C(=O)N1` [Boc-Dab(CONH-propargyl)-Lys(N3)-OMe] here?
**A.** The ring closure, yield over several steps was 99%.

**Q.** Which ring closure, yield over several steps ([1]; from C#CCNC(=O)NCC[C@H](NC(=O)OC(C)(C)C)C(=O)N[C@@H](CCCCNC(=O)[C@H](Cc1ccccc1)N=[N+]=[N-])C(=O)OC, 20-membered ring) does the source give for `COC(=O)[C@@H]1CCCCNC(=O)[C@H](Cc2ccccc2)n2cc(nn2)CNC(=O)NCC[C@H](NC(=O)OC(C)(C)C)C(=O)N1` [Boc-Dab(CONH-propargyl)-Lys(N3-Phe)-OMe] here?
**A.** Its ring closure, yield over several steps is 80%.

**Q.** For `COC(=O)[C@@H]1CCCn2cc(nn2)CNC(=O)NCC[C@H](NC(=O)OC(C)(C)C)C(=O)N1` [Boc-Dab(CONH-propargyl)-Orn(N3)-OMe], which ring closure, yield over several steps ([1]; from C#CCNC(=O)NCC[C@H](NC(=O)OC(C)(C)C)C(=O)N[C@@H](CCCN=[N+]=[N-])C(=O)OC, 16-membered ring) is on record?
**A.** Its ring closure, yield over several steps is 29%.

**Q.** For `COC(=O)[C@@H]1CNC(=O)[C@H](Cc2ccccc2)n2cc(nn2)CCC(=O)NC[C@H](NC(=O)OC(C)(C)C)C(=O)N1` [Boc-Dap(4-pentynoyl)-Dap(N3-Phe)-OMe], which ring closure, yield over several steps ([1]; from C#CCCC(=O)NC[C@H](NC(=O)OC(C)(C)C)C(=O)N[C@@H](CNC(=O)[C@H](Cc1ccccc1)N=[N+]=[N-])C(=O)OC, 16-membered ring) is on record?
**A.** Its ring closure, yield over several steps is 83%.

**Q.** With `COC(=O)[C@@H]1CCCCn2cc(nn2)CCC(=O)NC[C@H](NC(=O)OC(C)(C)C)C(=O)N1` [Boc-Dap(4-pentynoyl)-Lys(N3)-OMe] as the compound, how does the ring closure, yield over several steps ([1]; from C#CCCC(=O)NC[C@H](NC(=O)OC(C)(C)C)C(=O)N[C@@H](CCCCN=[N+]=[N-])C(=O)OC, 16-membered ring) read?
**A.** Its ring closure, yield over several steps is 59%.

**Q.** With `COC(=O)[C@@H]1CCCCNC(=O)[C@H](Cc2ccccc2)n2cc(nn2)CCC(=O)NC[C@H](NC(=O)OC(C)(C)C)C(=O)N1` [Boc-Dap(4-pentynoyl)-Lys(N3-Phe)-OMe] as the compound, how does the ring closure, yield over several steps ([1]; from C#CCCC(=O)NC[C@H](NC(=O)OC(C)(C)C)C(=O)N[C@@H](CCCCNC(=O)[C@H](Cc1ccccc1)N=[N+]=[N-])C(=O)OC, 19-membered ring) read?
**A.** Its ring closure, yield over several steps is 99%.

**Q.** Which ring closure, yield over several steps ([1]; from C#CCCC(=O)NC[C@H](NC(=O)OC(C)(C)C)C(=O)N[C@@H](CCCN=[N+]=[N-])C(=O)OC, 15-membered ring) does the source give for `COC(=O)[C@@H]1CCCn2cc(nn2)CCC(=O)NC[C@H](NC(=O)OC(C)(C)C)C(=O)N1` [Boc-Dap(4-pentynoyl)-Orn(N3)-OMe] here?
**A.** The ring closure, yield over several steps was 53%.

**Q.** For `COC(=O)[C@@H]1CCCn2nncc2CNC(=O)NCCC[C@H](N)C(=O)N1` [Boc-Orn(CONH-propargyl)-Orn(N3)-OMe], which ring closure, yield over several steps ([2]; from C#CCNC(=O)NCCC[C@H](NC(=O)OC(C)(C)C)C(=O)N[C@@H](CCCN=[N+]=[N-])C(=O)OC, 16-membered ring) is on record?
**A.** Its ring closure, yield over several steps is 99%.

**Q.** Which ring closure, yield over several steps ([2]; from C#CCNC(=O)NCCC[C@H](NC(=O)OC(C)(C)C)C(=O)N[C@@H](Cc1ccc(N=[N+]=[N-])cc1)C(=O)OC, 18-membered ring) does the source give for `COC(=O)[C@@H]1Cc2ccc(cc2)-n2nncc2CNC(=O)NCCC[C@H](N)C(=O)N1` [Boc-Orn(CONH-propargyl)-Phe(4-N3)-OMe] here?
**A.** The ring closure, yield over several steps was 46%.

**Q.** For `COC(=O)[C@@H]1CCCCn2nncc2CCC(=O)Nc2ccc(cc2)C[C@H](N)C(=O)N1` [Boc-Phe(4-NH-4-pentynoyl)-Lys(N3)-OMe], which ring closure, yield over several steps ([2]; from C#CCCC(=O)Nc1ccc(C[C@H](NC(=O)OC(C)(C)C)C(=O)N[C@@H](CCCCN=[N+]=[N-])C(=O)OC)cc1, 19-membered ring) is on record?
**A.** Its ring closure, yield over several steps is 71%.

**Q.** With `COC(=O)[C@@H]1CCCCNC(=O)[C@H](Cc2ccccc2)n2nncc2CCC(=O)Nc2ccc(cc2)C[C@H](N)C(=O)N1` [Boc-Phe(4-NH-4-pentynoyl)-Lys(N3-Phe)-OMe] as the compound, how does the ring closure, yield over several steps ([2]; from C#CCCC(=O)Nc1ccc(C[C@H](NC(=O)OC(C)(C)C)C(=O)N[C@@H](CCCCNC(=O)[C@H](Cc2ccccc2)N=[N+]=[N-])C(=O)OC)cc1, 22-membered ring) read?
**A.** Its ring closure, yield over several steps is 57%.

**Q.** With `COC(=O)[C@@H]1CCCn2nncc2CCC(=O)Nc2ccc(cc2)C[C@H](N)C(=O)N1` [Boc-Phe(4-NH-4-pentynoyl)-Orn(N3)-OMe] as the compound, how does the ring closure, yield over several steps ([2]; from C#CCCC(=O)Nc1ccc(C[C@H](NC(=O)OC(C)(C)C)C(=O)N[C@@H](CCCN=[N+]=[N-])C(=O)OC)cc1, 18-membered ring) read?
**A.** Its ring closure, yield over several steps is 44%.

**Q.** With `COC(=O)[C@@H]1CNC(=O)[C@H](Cc2ccccc2)n2nncc2CCCC(=O)Nc2ccc(cc2)C[C@H](N)C(=O)N1` [Boc-Phe(4-NH-5-hexynoyl)-Dap(N3-Phe)-OMe] as the compound, how does the ring closure, yield over several steps ([2]; from C#CCCCC(=O)Nc1ccc(C[C@H](NC(=O)OC(C)(C)C)C(=O)N[C@@H](CNC(=O)[C@H](Cc2ccccc2)N=[N+]=[N-])C(=O)OC)cc1, 20-membered ring) read?
**A.** Its ring closure, yield over several steps is 15%.

**Q.** Which ring closure, yield over several steps ([2]; from C#CCCCC(=O)Nc1ccc(C[C@H](NC(=O)OC(C)(C)C)C(=O)N[C@@H](CCCCN=[N+]=[N-])C(=O)OC)cc1, 20-membered ring) does the source give for `COC(=O)[C@@H]1CCCCn2nncc2CCCC(=O)Nc2ccc(cc2)C[C@H](N)C(=O)N1` [Boc-Phe(4-NH-5-hexynoyl)-Lys(N3)-OMe] here?
**A.** The ring closure, yield over several steps was 66%.

**Q.** Which ring closure, yield over several steps ([2]; from C#CCCCC(=O)Nc1ccc(C[C@H](NC(=O)OC(C)(C)C)C(=O)N[C@@H](CCCCNC(=O)[C@H](Cc2ccccc2)N=[N+]=[N-])C(=O)OC)cc1, 23-membered ring) does the source give for `COC(=O)[C@@H]1CCCCNC(=O)[C@H](Cc2ccccc2)n2nncc2CCCC(=O)Nc2ccc(cc2)C[C@H](N)C(=O)N1` [Boc-Phe(4-NH-5-hexynoyl)-Lys(N3-Phe)-OMe] here?
**A.** The ring closure, yield over several steps was 50%.

**Q.** With `COC(=O)[C@@H]1CCCn2nncc2CCCC(=O)Nc2ccc(cc2)C[C@H](N)C(=O)N1` [Boc-Phe(4-NH-5-hexynoyl)-Orn(N3)-OMe] as the compound, how does the ring closure, yield over several steps ([2]; from C#CCCCC(=O)Nc1ccc(C[C@H](NC(=O)OC(C)(C)C)C(=O)N[C@@H](CCCN=[N+]=[N-])C(=O)OC)cc1, 19-membered ring) read?
**A.** Its ring closure, yield over several steps is 68%.
